Reference: article PMC8839585, “Development of a Real-Time Pectic Oligosaccharide-Detecting Biosensor Using the Rapid and Flexible Computational Identification of Non-Disruptive Conjugation Sites (CINC) Biosensor Design Platform” (Sensors (Basel, Switzerland), 2022)

Assays:
[1] = target: T1, TogB (Yersinia enterocolitica, UniProt A0ACH1C7V4, D363C); test: equilibrium fluorescence change of MDCC-labelled purified protein at […] ligand (n = […]); type: binding
T1 construct: gene yesO; TogB without signal secretion peptide, D363C conjugated to MDCC
T1 sequence (A0ACH1C7V4 27-430 D363C): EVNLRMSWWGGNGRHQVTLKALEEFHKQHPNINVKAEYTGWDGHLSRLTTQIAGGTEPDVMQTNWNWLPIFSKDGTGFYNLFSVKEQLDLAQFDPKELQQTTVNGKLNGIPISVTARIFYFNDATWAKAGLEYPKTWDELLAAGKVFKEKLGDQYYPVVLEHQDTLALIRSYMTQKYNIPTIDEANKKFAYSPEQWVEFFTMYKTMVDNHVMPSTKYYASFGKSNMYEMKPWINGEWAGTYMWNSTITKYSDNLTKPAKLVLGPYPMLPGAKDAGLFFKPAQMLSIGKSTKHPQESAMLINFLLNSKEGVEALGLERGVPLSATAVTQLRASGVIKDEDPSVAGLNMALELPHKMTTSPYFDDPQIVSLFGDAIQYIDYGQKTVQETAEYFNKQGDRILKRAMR

[2] = target: T1, TogB; test: stopped-flow fluorescence titration of MDCC-labelled purified protein; type: binding

| Compound | fluorescence change [1] [%] | Kd [2] [µM] |
| --- | --- | --- |
| O=C(O)[C@H]1O[C@H](O[C@@H]2[C@H](O)[C@@H](O)[C@@H](O[C@@H]3[C@H](O)[C@@H](O)C(O)O[C@@H]3C(=O)O)O[C@@H]2C(=O)O)[C@H](O)[C@@H](O)[C@H]1O (stereo partly drawn) [trigalUA, trigalacturonic acid] | −44 | – |
| O=C(O)C1=C[C@H](O)[C@@H](O)[C@@H](O[C@@H]2[C@H](O)[C@@H](O)C(O)O[C@@H]2C(=O)O)O1 (stereo partly drawn) [unsatdigalUA, 4,5-unsaturated digalacturonic acid] | – | 1.3 ± 0.5 |
| O=C(O)[C@H]1O[C@H](O[C@@H]2[C@H](O)[C@@H](O)C(O)O[C@@H]2C(=O)O)[C@H](O)[C@@H](O)[C@H]1O (stereo partly drawn) [digalUA, digalacturonic acid] | – | 6 ± 1 |
